From article PMC9572541, “Design, Synthesis and Biological Evaluation of Novel and Potent Protein Arginine Methyltransferases 5 Inhibitors for Cancer Therapy” (Molecules, 2022)
Entries after “also recorded” stand apart in the source; their conditions may differ.

Legend:
AML-12 hepatocytes = test: Toxicity on normal AML-12 hepatocytes; format: cell-based
Excerpt: (§1) MV-4-11 and MDA-MB-468 cell lines were used to evaluate the anti-proliferative activities of the selected target compounds (CellTiter-Glo assay), and AML-12 hepatocytes were selected to evaluate the toxicity of the compounds.
MV-4-11 and MDA-MB-468 cell line were derived from Cell Resources Center of Shanghai Academy of life sciences (Shanghai, China). AML-12 cell line was brough from Nanjing Lixing Biotechnology Co. Ltd. (Nanjing, China). MDA-MB-468 cell line was maintained in Dulbecco’s Modified Eagle Medium (DMEM, KeyGEN Bio) that contained 10% FBS (Biochanel, China), MV-4-11 cell line was maintained in Iscove’s Modified Dulbecco Medium containing; 10% FBS (Biochannel, China), AML-12 cell line was maintained in DMEM/F-12 (1:1) (KeyGEN, China; 1% ITS Liquid Media Supplement (Sigma, America), dexamethasone 40 ng/mL (Sigma, USA) and 10% FBS (Biochannel, China). All cells were grown in a humidified incubator containing 5% carbon dioxide at 37 ℃. All compounds were dispersed in dimethyl sulfoxide (Sigma), the concentration of the reserve solution was 10 mmol/L and the solution was stored in a refrigerator at −20 ℃. SDMA (# 13222S), β- Tubulin (#2146S) and horseradish peroxidase (HRP)-linked secondary antibodies anti-rabbit or anti-mouse IgG were purchased from Cell Signaling Technology (CST), and the anti-PRMT5 (ab109451) antibody was purchased from ABCAM. […]

MV-4-11 xenograft = MV-4-11 xenograft mouse model; format: in vivo, BALB/c nude mice; settings: 28 days
Protocol: Based on the excellent enzymatic and anti-proliferative activities of compound 20 in vitro, we then evaluated antitumor activities in vivo in an MV-4-11 xenograft mouse model.
Male BALB/c nude mice (6–8 weeks old) were purchased from Hangzhou Medical College. All animals were housed in a specific pathogen-free facility. MV-4-11 cells (5 × 10^6) suspended in 0.2 mL of PBS were inoculated subcutaneously on the right flank of each BALB/c nude mouse. Mice were divided randomly (5 mice for each group) into two treatment groups and a control group when the size of the tumors reached 150 mm^3. […] The tumor volume and body weight were measured every 2 days. The tumor volume was determined with Vernier calipers and calculated as follows: tumor volume = a × b^2/2, where a and b stand for the longest and shortest diameters measured by the vernier caliper, respectively. All animal experiments have been approved by Pharmaceutical Experiment Center of China Pharmaceutical University.
(A) The resulting tumors excised from the animals after treatment. […] (C) The nude mouse body weight was measured every 2 days. (D) The tumor volumes of the nude mice were measured and calculated once every 2 days.

MV-4-11 cells = test: Anti-proliferation CellTiter-Glo assay, MV-4-11; format: cell-based; settings: Homo sapiens, MV4-11, 12th day
Excerpt: as §1
(§2) MV-4-11 and MDA-MB-468 cell line were derived from Cell Resources Center of Shanghai Academy of life sciences (Shanghai, China). AML-12 cell line was brough from Nanjing Lixing Biotechnology Co. Ltd. (Nanjing, China). MDA-MB-468 cell line was maintained in Dulbecco’s Modified Eagle Medium (DMEM, KeyGEN Bio) that contained 10% FBS (Biochanel, China), MV-4-11 cell line was maintained in Iscove’s Modified Dulbecco Medium containing; 10% FBS (Biochannel, China), AML-12 cell line was maintained in DMEM/F-12 (1:1) (KeyGEN, China; 1% ITS Liquid Media Supplement (Sigma, America), dexamethasone 40 ng/mL (Sigma, USA) and 10% FBS (Biochannel, China). All cells were grown in a humidified incubator containing 5% carbon dioxide at 37 ℃. All compounds were dispersed in dimethyl sulfoxide (Sigma), the concentration of the reserve solution was 10 mmol/L and the solution was stored in a refrigerator at −20 ℃. SDMA (# 13222S), β- Tubulin (#2146S) and horseradish peroxidase (HRP)-linked secondary antibodies anti-rabbit or anti-mouse IgG were purchased from Cell Signaling Technology (CST), and the anti-PRMT5 (ab109451) antibody was purchased from ABCAM.
(§3) The antiproliferative activities of compounds in vitro were measured by CellTiter-Glo (CTG) assay (Promega, America). In linear/log-phase growth, cultured MV-4-11 cells were split to with seeding density of 2 × 10^5 cells/mL in 1–20 mL of media, depending on the yield required at the end of the growth period. At the conclusion of each treatment period, cells were harvested by centrifugation (4 min, 1000 rpm), and cell pellets were rinsed twice with PBS before being research further processing. Afterwards, cells were plated in 96-well plates with a density of 500 cells/well in […] media. After six hours incubation, compounds treatment was performed. Half of the culture medium was moved and re-plated with fresh media with fresh compound after 6 days. On the 12th day, Cell Titer-Glo Luminescent Cell Viability assays (Promega, USA) were used to determine the viable cell number, and luminescence was recorded using the Envision Multilabel Plate Readers (PerkinElmer). The concentration dependence curves were determined at each time point using GraphPad Prism 8.0 software.

sDMA = test: Western blot of sDMA in MV-4-11 xenograft tumors; format: in vivo, BALB/c nude mice; settings: 10 mg/kg, 28 days
Protocol: Subsequently, we investigated the effects of compound 20 on the expression of the PRMT5 substrate sDMA in vivo (Figure 8). Similarly, the expression of sDMA was decreased after the treatment of compound 20, which was in line with its antitumor activity in vivo.
Tumor tissue was grinded by a cryo-grinder before being lysed with an RIPA buffer, protease inhibitors (PMSF, MCE), and phosphatase cocktails II (MCE). The mixture was centrifuged for 15 min (12,000 rpm). The following steps were the same as with cells.
(A) Western blot analysis of sDMA as indicated in MV-4-11 xenograft tumors treated with the indicated compounds for 28 days. (B) The relative strength of sDMA signal on the Western blots was measured by densitometry. The data are shown as the mean ± SD of three independent experiments. * p < 0.05 vs. control.

MDA-MB-468 cells = test: Anti-proliferation CellTiter-Glo assay, MDA-MB-468; format: cell-based; settings: Homo sapiens
Excerpt: as §1, §2, §3

O=C(NC[C@H](O)CN1CCc2ccccc2C1)c1ccc2c(c1)c1c(n2CC2COC2)CCCC1 [Compound 20, (S)-N-(3-(3,4-dihydroisoquinolin-2(1H)-yl)-2-hydroxypropyl)-9-(oxetan-3-ylmethyl)-2,3,4,9-tetrahydro-1H-carbazole-6-carboxamide]
toxicity to normal AML-12 hepatocytes (in words) (AML-12 hepatocytes): almost no toxicity; also recorded: no significant cytotoxicity | inhibition at 10 µM (AML-12 hepatocytes; Mus musculus, AML12, read-out: AML-12 Inhibition Rate% @10 μM): -30.5 ± 9.4% | inhibition at 20 µM (AML-12 hepatocytes; Mus musculus, AML12, read-out: AML-12 Inhibition Rate% @20 μM): -27 ± 1.2% | body weight (MV-4-11 xenograft; 10 mg/kg BID): no significant weight fluctuations | tolerability / mortality (MV-4-11 xenograft; 10 mg/kg BID): well-tolerated with no mortality | TGI (MV-4-11 xenograft; 10 mg/kg, twice daily (BID)): 47.6% | GI50 (MV-4-11 cells): 4.6 ± 0.9 nM | expression of sDMA in vivo (sDMA): decreased | GI50 (MDA-MB-468 cells): 9.9 ± 6.8 nM
